Assay results taken from PubChem BioAssay (NCI).
Several values for one entry are separate records, joined by “and”; a condition that tells them apart may be missing. Equal values may be shown once.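 Compound exposure: 48 hours, 5 concentrations, 96-well plates. GI50 = concentration required for 50% inhibition of growth. TGI is the concentration that stops growth completely.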

What was measured:
Assay in all cases: NCI tumour cell line growth inhibition, 48 h
[1] = test system: MCF7 breast
[2] = test system: MDA-MB-435
[3] = test system: DLD-1 colon
[4] = test system: LXFL 529 NSCLC
[5] = test system: HOP-18 NSCLC
[6] = test system: RXF-631 renal
[7] = test system: XF 498 CNS
[8] = test system: DMS 114 small cell lung
[9] = test system: MDA-N

Row | Structure (SMILES) | GI50 [1] [µM] | TGI [1] [µM] | GI50 [2] [µM] | TGI [2] | TGI [3] [µM] | TGI [4] [µM] | TGI [8] [µM] | also measured
1 | COc1ccc(Cn2cc3c(c2)-c2oncc2CC3)cc1 | 3.07 | > 100 | 0.635 | 5.75 µM |  |  |  | 
2 | N.N.N.N.O=C([O-])C(Cl)Cl.O=C([O-])C(Cl)Cl.[Co+3].[O-][Cl+3]([O-])([O-])[O-] |  |  |  |  | > 100 | > 100 |  | GI50 [3]: > 100 µM; GI50 [4]: > 100 µM
3 | O=[N+]([O-])c1cnn(C2=CNc3ccccc3N=C2)c1 |  |  |  |  | > 100 |  |  | TGI [5]: > 100 µM; TGI [6]: > 100 µM; TGI [7]: > 100 µM
4 | COc1ccc(N2C(=O)[C@H]3CC(C)c4c([nH]c5ccccc45)[C@H]3C2=O)cc1 (stereo partly drawn) |  | > 100 |  | 2.3 µM | > 41.5 | 26.8 | 7.32 | TGI [9]: 3.4 µM; TGI [7]: 22.4 µM
5 | Cc1cc2c(cc1Cl)SC1=NN(C)C(N(C)C)N1S2(=O)=O (stereo not drawn) | > 100 | > 100 | > 100 | > 100 µM |  |  |  | 
6 | CCCCN(CCCC)c1c([N+](=O)[O-])c(=O)nc2ccccn12 |  |  |  |  | > 100 | > 100 | 49.6 | TGI [6]: 79.8 µM; TGI [7]: 79.6 µM
7 | COc1cc(C(=O)Nc2cc3c(cc2Oc2cc(C)cc(C)c2)C(=O)N(C)[C@@H](CC(=O)N(C)O)C(=O)N3)c(Br)c(OC)c1OC | < 0.00333 | 0.00821 | < 0.00333 | 0.00351 µM |  |  |  | 
8 | Cc1ccc(-c2cc(-c3ccco3)c(C#N)c(=O)n2C2OC(OC(=O)c3ccccc3)C(OC(=O)c3ccccc3)C2OC(=O)c2ccccc2)cc1 (stereo not drawn) |  |  |  |  | > 100 | > 100 | > 100 | TGI [5]: > 100 µM; TGI [6]: > 100 µM
9 | O=C(O)C1CCCCC1C(=O)O.[NH-]C1CCC1.[NH2-].[Pt+2] (stereo not drawn) | 22.7 | > 100 | 15.7 | 29.3 µM |  |  |  | 
10 | CCC[n+]1cc2cc(OC)c(OC)cc2c2c1-c1cc3c(cc1C2)OCO3 | 2.59 | > 33.8 | 3.29 | 12.4 µM |  |  |  | GI50 [9]: 2.83 µM; TGI [9]: 11 µM
11 | CCn1c2ccc(O)cc2c2c(C)c3c[n+](C)ccc3c(C)c21 | 2.65 | 23.4 | 9.17 | 50.9 µM |  |  |  | 
12 | Cc1cc(S(=O)(=O)NC#N)c(S/C(=N\Nc2ccc([N+](=O)[O-])cc2)c2ccc(Cl)cc2)cc1Cl | 15.9 | 42.6 | 64.3 | > 100 µM |  |  |  | 
13 | NCCCCNc1ccc2c(=O)[nH][nH]c(=O)c2c1 |  |  |  |  | > 100 | > 100 | > 100 | TGI [5]: > 100 µM
14 | Cc1[nH]nc(C(=O)n2nc(N)c3ccccc32)c1[N+](=O)[O-] | > 100 | > 100 | > 100 | > 100 µM |  |  |  | 
15 | CCOP(=O)(OCC)OC(C#N)c1ccc(-c2ccccc2)cc1 (stereo not drawn) |  |  |  |  | 36.9 | 32 | 29.6 | TGI [5]: 98.2 µM; TGI [7]: 50.1 µM
16 | COC1C2C=CC(C2)[C@H]1[N+](=O)[O-] (stereo partly drawn) |  |  |  |  | > 100 | > 100 | > 100 | TGI [6]: > 100 µM
17 | O=C1C(c2ccccc2)=[N+]([O-])c2ccccc21 |  | 4.88 |  | 11.2 µM |  |  |  | TGI [9]: 12.8 µM
18 | CC(=O)OCC(OC(C)=O)C(OC(C)=O)C(OC(C)=O)C(=O)CNn1c(-c2ccccc2Cl)nc2ccccc2c1=O (stereo not drawn) |  |  |  |  |  | > 100 | > 100 | 

Row | Structure (SMILES) | GI50 [1] [µM] | TGI [1] [µM] | GI50 [2] [µM] | TGI [2] | TGI [3] [µM] | TGI [4] [µM] | TGI [8] [µM] | also measured
19 | Cc1nc2sccn2c1-c1csc(Nc2cccc(Cl)c2C)n1 | 3.34 | 25.6 | 1.95 | 6.47 µM |  |  |  | 
20 | CCN(CC)C(=S)SC |  | > 100 |  |  |  |  |  | TGI [9]: > 100 µM
21 | CCCOc1ccc2nc(NC(=O)OC)[nH]c2c1 | 0.239 | > 100 | 0.0284 | 0.11 µM |  |  |  | 
22 | COC(=O)C(CC(=O)Nc1ccc(C)cc1)C(=O)C(=O)Nc1ccccc1C(C)C (stereo not drawn) |  |  |  |  | > 100 | > 100 | > 100 | TGI [5]: > 100 µM; TGI [7]: > 100 µM
23 | CN1C(=O)N(C)C2C1NN=c1s/c(=C\c3ccc(F)cc3)c(=O)n12 (stereo not drawn) | 0.673 | > 100 | 0.361 | 1.71 µM |  |  |  | 
24 | COC(=O)C1=C(C(=O)OC)SC(=CC#CC=C2SC(C(=O)OC)=C(C(=O)OC)S2)S1 |  |  |  |  | > 54 | > 57.4 | > 60.7 | TGI [5]: 45.9 µM; TGI [7]: 19.1 µM
25 | CC1C(=O)OCC2=CCN3CCC(OC(=O)C(C)C1(C)O)C23 (stereo not drawn) |  |  |  | > 100 µM |  |  |  | TGI [9]: > 100 µM
26 | Nc1ccc(C(=O)CC(N)C(=O)O)cc1O (stereo not drawn) |  | > 100 |  | > 100 µM |  |  |  | TGI [9]: > 100 µM
27 | COc1ccc(/C=C\c2cc(OC)c(O[Si](C)(C)C(C)(C)C)c(OC)c2)cc1 |  |  |  |  | > 100 | > 100 | 91.4 | TGI [6]: > 100 µM; TGI [7]: 49.5 µM
28 | Nc1ccccc1C#C/C=C\C#Cc1ccccc1 |  |  | 2.64 | 6.31 µM |  |  |  | 
29 | COc1ccc(-c2oc3c(OC)c(OC)c(OC)c(OC)c3c(=O)c2OC)cc1OC |  | > 100 |  | 98.7 µM |  |  |  | TGI [9]: > 100 µM
30 | O=c1cccc(C2CC(CO)C3CCCCN3C2)[nH]1 (stereo not drawn) |  | > 100 |  | > 100 µM |  |  |  | TGI [9]: > 100 µM
31 | CC[O-].CC[O-].O=S(=O)([O-])c1ccc([O-])c2ncccc12.O=S(=O)([O-])c1ccc([O-])c2ncccc12.[Ti+4] |  |  |  |  | > 100 | > 100 | > 100 | GI50 [3]: 91.1 µM; GI50 [8]: 74.7 µM; GI50 [5]: > 100 µM; TGI [5]: > 100 µM; GI50 [4]: 39.6 µM
32 | COc1ccc(Cn2c3c(cc(OS(=O)(=O)C(F)(F)F)c2=O)Cc2ccccc2-3)cc1 |  |  | 29.4 | 50 µM and > 100 µM |  |  |  | GI50 [9]: 7.55 µM; TGI [9]: 50 µM and > 100 µM
33 | Cc1cc(C)c(C(=O)c2no[n+]([O-])c2C(=O)c2c(C)cc(C)c(Br)c2C)c(C)c1Br |  |  |  |  | 30.7 | 23.7 | 23.4 | TGI [6]: 35.7 µM
34 | COc1ccccc1/C=C/C(=O)c1ccccc1 | 1.56 | 10.2 | 5.16 | 21.7 µM |  |  |  | 
35 | Cn1c2c(c3ccc(Cl)c(Cl)c31)C(C#N)C1(CCNCC1)NC2=O (stereo not drawn) | 1.45 | 3.01 | 1.4 | 2.9 µM |  |  |  | 
